Like-named read-outs stand apart in the source and are kept apart here.
Columns and labels:
HCT116 cells = assay: RNA-sequencing analysis; type: cell-based, human; conditions: 48 h
Method: Total RNA was isolated from the HCT11 cells using Trizol (Invitrogen Life Technologies Corporation, Carlsbad, USA), cDNA synthesis followed by adaptor ligation and enrichment according to the instructions. The purified library products were evaluated using Illumina NovaSeq 6000 (paired-end 150 bp).

[1] = Metabolites in mice (LC-QTOF/MS); type: in vivo, BALB/c mice; conditions: 55 mg/kg, mixed plasma 0-24 h
Method: SPF BALB/c mice were adaptively fed for one week. In the control group, mice received an intravenous injection of an equal volume of solvent. In the Model group, mice received an intravenous injection of 55 mg/kg of 33a. Following administration at time points of 0, 0.25, 0.5, 1, 2, 4, 8, 12, and 24 h, mixed plasma samples were collected from mice in each group. Subsequently, blood metabolites were detected, identified, and analyzed utilizing LC-QTOF/MS technology.
The ionization mode is Electrospray Ionization in positive mode (ESI+), with an ion source voltage of 5 kV and a temperature set at 550 °C. The collision energy (CE) is 30 eV. The nebulizing gas, gas1 (nebulizer gas), and gas2 (auxiliary gas) are all nitrogen (N2) with their pressures set to 55 psi. The curtain gas (CUR) pressure is 35 psi. The parent ion scan range for the first-order mass spectrum is m/z […] to 1000, and the daughter ion scan range is m/z 50 to 1000. Dynamic Background Subtraction (DBS) is activated. The software used for data acquisition is Analyst® TF 1.8 software.

[2] = system: CT26 colon cancer xenograft; assay: CT26 xenograft tumor growth assay; type: in vivo, BALB/c mice
Method: All animal studies and procedures were approved by the Animal Ethics Committee of College of Chemistry and Chemical Engineering, Henan Normal University, China. CT26 cells (ATCC, Rockville, MD, USA) were used for tumor allograft experiments. […] Mice were injected with CT26 cells (1 × 10^7 per mouse) subcutaneously. The diameter of transplanted mouse tumors was measured with vernier calipers. […] The antitumor activity of the tested compounds was evaluated by measuring the tumor diameter. Tumor diameter and body weight were measured every two days. After 15 days, tumor tissues were surgically removed, weighed, and photographed. The tumor volume (TV) was calculated as in Eq. (1):(1) V=1/2×a×b^2 where a and b represent the length and width, respectively. Samples were used for histology. The tumor growth inhibition rate TGI (%) was calculated with Eq. (2):(2) TGI(%)=(1‒Tw/Cw)×100 where Tw and Cw are the average tumor weight on the 15th day for the treatment group and the model group, respectively.

[3] = Tissue distribution (LC-MS/MS); type: in vivo, BALB/c mice; conditions: for concentration at 4 h: BALB/c, mouse, intraperitoneal, 55 mg/kg intraperitoneally, after 4 h

Structure (SMILES): CCOC(=O)[C@]1(n2cnc3c(N4CCCCC4)nc(F)nc32)CSC[C@H]1O (racemic) [33a]
- genes significantly downregulated (HCT116 cells; 0.8 μmol/L): 221
- genes significantly upregulated (HCT116 cells; 0.8 μmol/Lol/L): 265
- metabolic pathways [1]: hydrolysis of carboxylic acid ester and glucuronidation
- TGI ([2]; 20 mg/kg i.p. once a day for 14 days): 54.74%
- IHC of tumor tissue ([2]; 55 and 20 mg/kg): significantly reduce the expression of tumor proliferation markers Ki67 and PCNA, increase the expression of cleaved caspase-3, and decrease the expression of c-MYC
- effect on body weight ([2]; 55 and 20 mg/kg i.p., 14 days): did not show an obvious toxic effect on body weight
- tumor growth ([2]; 55 and 20 mg/kg i.p., 14 days, tumor volume and weight): significant dose-dependent inhibitory effect on tumor growth
- H&E staining of major organs ([2]; heart, liver, spleen, lung, kidney): the major organs showed no apparent evidence of injury or abnormality
- blood-brain barrier passage ([3]; 55 mg/kg, 4 h): can readily cross the blood‒brain barrier
- concentration at 4 h ([3]; brain, read-out: concentration in brain): 87900 ± 21500 ng/g
- concentration at 4 h ([3]; heart, read-out: concentration in heart): 16900 ± 2990 ng/g
- concentration at 4 h ([3]; kidney, read-out: concentration in kidney): 70400 ± 5140 ng/g
- concentration at 4 h ([3]; liver, read-out: concentration in liver): 12500 ± 2130 ng/g
- concentration at 4 h ([3]; lung, read-out: concentration in lung): 38500 ± 4430 ng/g
- concentration at 4 h ([3]; spleen, read-out: concentration in spleen): 5490 ± 2450 ng/g

Reference: PMC12278645, “Design, synthesis, and antitumor activity of novel thioheterocyclic nucleoside derivatives by suppressing the c-MYC pathway” (Acta Pharmaceutica Sinica. B, 2025)
